# Laboratory results: patent publication US20140288052A1, “SUBSTITUTED BICYCLIC AZA-HETEROCYCLES AND ANALOGUES AS SIRTUIN MODULATORS” (GlaxoSmithKline, LLC, priority 2011, published 2014)
# Key:
# SIRT1 [1] = molecular target: T1, SIRT1 (Homo sapiens, UniProt Q96EB6); test: TAMRA based mass spectrometry assay of SIRT1 deacetylase activation; format: biochemical; conditions: TAMRA peptide substrate; for TAMRA EC1.5 (μM): concentration that results in 150% activation of SIRT1; for TAMRA % Fold Act: percent maximum fold activation relative to control (100%)
# T1 sequence (Q96EB6 1-747): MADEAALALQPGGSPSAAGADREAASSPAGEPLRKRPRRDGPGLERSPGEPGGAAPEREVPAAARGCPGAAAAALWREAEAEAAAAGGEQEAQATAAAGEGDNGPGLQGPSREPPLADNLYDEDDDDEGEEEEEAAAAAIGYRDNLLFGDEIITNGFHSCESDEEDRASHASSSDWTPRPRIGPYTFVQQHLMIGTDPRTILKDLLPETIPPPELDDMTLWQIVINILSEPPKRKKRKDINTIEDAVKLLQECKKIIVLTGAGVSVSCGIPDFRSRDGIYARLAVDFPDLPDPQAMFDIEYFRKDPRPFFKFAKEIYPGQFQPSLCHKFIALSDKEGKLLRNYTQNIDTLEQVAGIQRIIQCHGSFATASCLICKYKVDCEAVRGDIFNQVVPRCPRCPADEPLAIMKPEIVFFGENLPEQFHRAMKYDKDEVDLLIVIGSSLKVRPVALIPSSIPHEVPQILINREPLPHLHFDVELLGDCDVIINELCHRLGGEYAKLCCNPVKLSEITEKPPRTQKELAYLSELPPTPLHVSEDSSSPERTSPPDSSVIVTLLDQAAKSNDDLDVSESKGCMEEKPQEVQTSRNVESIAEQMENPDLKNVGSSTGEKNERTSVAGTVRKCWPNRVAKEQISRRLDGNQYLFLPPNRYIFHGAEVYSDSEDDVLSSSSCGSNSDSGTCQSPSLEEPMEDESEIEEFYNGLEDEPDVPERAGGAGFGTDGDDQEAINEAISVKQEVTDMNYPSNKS
# Outline: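 E. coli-expressed N-terminal His-tagged human SIRT1 (10 nM) was incubated 25 min at 25 °C, pH 8 Tris-acetate buffer, with 0.5 μM TAMRA-labelled p53-derived acetyl-peptide, 120 μM NAD+ and varying compound; formic acid stop, mass-spec quantitation of deacetylated product vs DMSO controls. EC1.5 = concentration giving 150% activation.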
# SIRT1 [2] = molecular target: T1, SIRT1; test: Trp mass spectrometry assay of SIRT1 deacetylase activation; format: biochemical; conditions: Trp peptide substrate; for TRP EC1.5 (μM): concentration that results in 150% activation of SIRT1; for TRP % Fold Act: percent maximum fold activation relative to control (100%)
# Outline: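 His-tagged human SIRT1 (E. coli-expressed, 10 nM) was incubated with 0.5 μM Ac-RHKK(Ac)W-NH2 peptide and 120 μM βNAD+ for 25 min at 25 °C in HEPES pH 7.5, 1500 mM NaCl, with varying compound; formic acid quench. OAADPR or deacetylated peptide was quantified by mass spectrometry against DMSO control. EC1.5 (150% activation) and percent maximum activation were derived.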
TAMRA EC1.5 (μM) (SIRT1 [1]),TAMRA % Fold Act (SIRT1 [1]),TRP EC1.5 (μM) (SIRT1 [2]),TRP % Fold Act (SIRT1 [2]),SMILES
C (EC1.5>25 μM),B (Fold Activation<350%),C (EC1.5>25 μM),B (Fold Activation<350%),O=C(Nc1ccncn1)c1ccnc2cc(-c3cccc(C(F)(F)F)c3)nn12 [Compound 92]
A (EC1.5<1 μM),A (Fold activation≧350%),C (EC1.5>25 μM),B (Fold Activation<350%),O=C(Nc1ccnc2cc(-c3ccccc3C(F)(F)F)nn12)c1cnccn1 [Compound 61]
C (EC1.5>25 μM),B (Fold Activation<350%),C (EC1.5>25 μM),B (Fold Activation<350%),Cc1csc(NC(=O)c2ccnc3cc(-c4cccc(C(F)(F)F)c4)nn23)n1 [Compound 89]
B (EC1.5 1−25 μM),A (Fold activation≧350%),B (EC1.5 1−25 μM),B (Fold Activation<350%),O=C(Nc1ncccn1)c1ccnc2cc(-c3ccccc3C(F)(F)F)nn12 [Compound 100]
C (EC1.5>25 μM),B (Fold Activation<350%),C (EC1.5>25 μM),B (Fold Activation<350%),O=C(Nc1ccncc1)c1cc(N2CCOCC2)nn2cc(-c3ccccc3F)nc12 [Compound 41]
C (EC1.5>25 μM),B (Fold Activation<350%),C (EC1.5>25 μM),B (Fold Activation<350%),O=C(Nc1ccnc2cc(-c3ccccc3C(F)(F)F)nn12)c1cncnc1 [Compound 104]
C (EC1.5>25 μM),B (Fold Activation<350%),C (EC1.5>25 μM),B (Fold Activation<350%),O=C(Nc1nccs1)c1ccnn2cc(-c3ccccc3F)nc12 [Compound 1]
A (EC1.5<1 μM),A (Fold activation≧350%),C (EC1.5>25 μM),B (Fold Activation<350%),Cc1cnc(C(=O)Nc2ccnc3cc(-c4ccccc4C(F)(F)F)nn23)cn1 [Compound 108]
C (EC1.5>25 μM),B (Fold Activation<350%),C (EC1.5>25 μM),B (Fold Activation<350%),Cc1cnc(NC(=O)c2ccnn3cc(-c4ccccc4F)nc23)s1 [Compound 4]
A (EC1.5<1 μM),A (Fold activation≧350%),A (EC1.5<1 μM),A (Fold activation≧350%),O=C(Nc1ccnc2cc(-c3ccccc3C(F)(F)F)nn12)c1cccc(OC[C@@H](O)CO)n1 [Compound 115]
B (EC1.5 1−25 μM),B (Fold Activation<350%),C (EC1.5>25 μM),B (Fold Activation<350%),Cn1cnc(C(=O)Nc2ccnc3cc(-c4cccc(C(F)(F)F)c4)nn23)c1 [Compound 96]
A (EC1.5<1 μM),A (Fold activation≧350%),B (EC1.5 1−25 μM),B (Fold Activation<350%),O=C(Nc1ccnc2cc(-c3ccccc3C(F)(F)F)nn12)c1ncccn1 [Compound 60]
B (EC1.5 1−25 μM),B (Fold Activation<350%),C (EC1.5>25 μM),B (Fold Activation<350%),O=C(Nc1ccccn1)c1cc(N2CCOCC2)nn2cc(-c3ccccc3C(F)(F)F)nc12 [Compound 44]
B (EC1.5 1−25 μM),B (Fold Activation<350%),C (EC1.5>25 μM),B (Fold Activation<350%),O=C(Nc1ccnc2cc(-c3cccc(C(F)(F)F)c3)nn12)c1ncccn1 [Compound 71]
C (EC1.5>25 μM),B (Fold Activation<350%),C (EC1.5>25 μM),B (Fold Activation<350%),O=C(Nc1nccs1)c1ccnn2cc(-c3cccc(Cl)c3)nc12 [Compound 21]
A (EC1.5<1 μM),A (Fold activation≧350%),C (EC1.5>25 μM),B (Fold Activation<350%),O=C(Nc1cccc(N2CCOCC2)n1)c1ccnn2cc(-c3ccccc3C(F)(F)F)nc12 [Compound 16]
C (EC1.5>25 μM),B (Fold Activation<350%),C (EC1.5>25 μM),B (Fold Activation<350%),Cc1cnc(NC(=O)c2cc(N3CCOCC3)nn3cc(-c4cccc(C(F)(F)F)c4)nc23)s1 [Compound 48]
B (EC1.5 1−25 μM),A (Fold activation≧350%),B (EC1.5 1−25 μM),B (Fold Activation<350%),O=C(Nc1ccnc2cc(-c3ccccc3C(F)(F)F)nn12)c1ccn[nH]1 [Compound 110]
A (EC1.5<1 μM),A (Fold activation≧350%),C (EC1.5>25 μM),B (Fold Activation<350%),Cc1ccnc(C(=O)Nc2ccnc3cc(-c4ccccc4C(F)(F)F)nn23)c1 [Compound 105]
A (EC1.5<1 μM),A (Fold activation≧350%),A (EC1.5<1 μM),A (Fold activation≧350%),O=C(Nc1ccnc2cc(-c3ccccc3C(F)(F)F)nn12)c1cccc(OC[C@H](O)CO)n1 [Compound 114]
A (EC1.5<1 μM),A (Fold activation≧350%),C (EC1.5>25 μM),B (Fold Activation<350%),Cc1nc(C(=O)Nc2ccnc3cc(-c4ccccc4C(F)(F)F)nn23)cs1 [Compound 56]
C (EC1.5>25 μM),B (Fold Activation<350%),C (EC1.5>25 μM),B (Fold Activation<350%),O=C(Nc1ccnc2cc(-c3cccc(C(F)(F)F)c3)nn12)c1ccccn1 [Compound 70]
C (EC1.5>25 μM),B (Fold Activation<350%),C (EC1.5>25 μM),B (Fold Activation<350%),O=C(Nc1nccs1)c1cc(N2CCOCC2)nn2cc(-c3cccc(Cl)c3)nc12 [Compound 30]
B (EC1.5 1−25 μM),B (Fold Activation<350%),C (EC1.5>25 μM),B (Fold Activation<350%),O=C(Nc1ccnc2cc(-c3ccccc3C(F)(F)F)nn12)c1nccs1 [Compound 93]
B (EC1.5 1−25 μM),A (Fold activation≧350%),B (EC1.5 1−25 μM),B (Fold Activation<350%),O=C(Nc1cccnc1)c1cc(N2CCOCC2)nn2cc(-c3ccccc3C(F)(F)F)nc12 [Compound 45]
C (EC1.5>25 μM),B (Fold Activation<350%),C (EC1.5>25 μM),B (Fold Activation<350%),O=C(Nc1cnccn1)c1ccnc2cc(-c3cccc(C(F)(F)F)c3)nn12 [Compound 102]
A (EC1.5<1 μM),A (Fold activation≧350%),C (EC1.5>25 μM),B (Fold Activation<350%),O=C(Nc1ccnc2cc(-c3ccccc3C(F)(F)F)nn12)c1ncc(F)cc1F [Compound 116]
C (EC1.5>25 μM),B (Fold Activation<350%),C (EC1.5>25 μM),B (Fold Activation<350%),O=C(Nc1cccc(N2CCOCC2)n1)c1ccnc2cc(-c3cccc(C(F)(F)F)c3)nn12 [Compound 90]
C (EC1.5>25 μM),B (Fold Activation<350%),C (EC1.5>25 μM),B (Fold Activation<350%),O=C(Nc1ccnc2cc(-c3cccc(C(F)(F)F)c3)nn12)c1ccncn1 [Compound 97]
A (EC1.5<1 μM),A (Fold activation≧350%),C (EC1.5>25 μM),B (Fold Activation<350%),Cc1cccnc1C(=O)Nc1ccnc2cc(-c3ccccc3C(F)(F)F)nn12 [Compound 112]
